A short description of data set [1]: Relative Energy Difference (RED) with cholesterol, calculated from HSP. To be noted: for Relative Energy Difference (RED) with cholesterol: RED=Ra/Ro, Ro of cholesterol 12.6. As to the method:
The extent to which two compounds will dissolve each other can be quantified using the equations developed by Hansen: (Ra)^2=4(δd2−δd1)^2+(δp2−δp1)^2+(δh2−δh1)^2 Eq. (1) RED=Ra/Ro Eq. (2)
Equation 1 calculates the relative magnitude difference of the three Hansen parameters of the two compounds to arrive at Ra. […] Equation 2 allows one to calculate the Relative Energy Difference (RED) of the solvent and the material we are trying to dissolve, by dividing Ra by Ro. Ra was calculated in Equation 1 and measures the magnitude of the difference of the HSP values of the two compounds. The units for the HSP parameters δd, δp, δh are MPa^1/2. […] The Relative Energy Difference (RED) is a dimensionless number which quantifies how well a solvent will dissolve a solute. For an RED>>1 the compounds will not dissolve. For an RED˜1, there will be some dissolution. For an RED<1 there will be a considerable amount of dissolution. Essentially, the smaller RED value, the more solute will dissolve into the solvent, with RED=1 being a threshold where a given solute is starting to be soluble in a given solvent.
Referring now to FIG. 6, this diagram provides a flow chart showing how the biocompatible microdroplet solvent emulsion can be formulated. […] For an example of compounds which might be included in 400, please refer to Tables 1, 2, 3 and 4. However, this list of tables is by no means exhaustive and other compounds could be added to this list. The number of compounds selected can comprise of 1, 2, 3 or as many as are deemed necessary, which is symbolized by the variable n. The HSP parameters of a homogenous mixture of compounds are the weighted average of the HSP parameters of the individual components. […] Ideally, it is possible to formulate a solution such that the resultant RED of the mixture is smaller than the RED of any of the individual components.
The δdm, δpm, δhm calculated using Eq. 9 are the Hansen solubility parameters of the homogenous mixture, where m denotes mixture, and fi depicts the fraction of each of the n components used to fabricate the biocompatible solvent. Equation 10 can be used to calculate the RED of the final mixture, where Ro is the interaction radius of the cholesterol, or other component of arterial plaque one desires to dissolve using the biocompatible microdroplets and […] represents the Hansen solubility constants of cholesterol (dispersion, polar and hydrogen bonding components) or the HSP parameter of the arterial plaque which is being targeted.

The conditions of data set [2]: single compound; cited from earlier work.
A short description of data set [3]: Dissolving cholesterol by microdroplets in whole blood. To be noted: whole blood. The text has this: To effectively dissolve arterial plaque in-vivo it is very important that the biocompatible solvent be sufficiently insoluble in blood to allow a small discrete microdroplet to travel through the blood stream, from the injection point, to the plaque which is being treated. If the biocompatible solvent dissolves within the blood, such as an alcohol, the solubility parameters of the resultant mixture will be very nearly identical to that of blood and will not dissolve cholesterol or arterial plaque. Conversely, if a discrete microdroplet of the biocompatible solvent makes contact with the plaque, then the cholesterol molecule in the plaque will be surrounded by multiple molecules of the biocompatible solvent, which have similar solubility parameters as the cholesterol, and the cholesterol will be drawn away from the plaque and into the droplet. […] An organic salt, Esters, an organo-metallic compound could also be used as the main component or an addition to the biocompatible microdroplet solvent means. Essentially any organic molecule which can be administered intravenously with acceptable side effects, is sufficiently insoluble in blood to travel as a discrete microdroplet without being dissolved prior to reaching arterial plaque and which is capable of dissolving cholesterol, cholesterol esters or other materials within the arterial plaque, could potentially be used.
1,8-cineole is classified as a cyclic ether and a monoterpenoid. […] This chemical gives certain fruits such as apples and strawberries their fruity taste, and is used as an additive in bubble gums for this purpose. […] It is used as a fragrance or flavouring agent. […] It is produced natuarally by the organism, and is found in abundance in shark liver oil.

In the case of `C=C(C)[C@@H]1CCC=C(C)C1` [Sylvestrene], the “Relative Energy Difference (RED) with cholesterol” value (“Relative Energy Difference (RED)” for short) in data set [1] is 0.74. For the same compound, in data set [2], the “δd London dispersion HSP parameter” value is recorded as 16.6 MPa^1/2, the “δh hydrogen bonding HSP parameter” value was 4.1 MPa^1/2 and the “δp polarity HSP parameter” value was 3 MPa^1/2.
Turning to `C=CC(=C)CCC=C(C)C` [Myrcene], the “Relative Energy Difference (RED)” value in data set [1] was 0.78. In data set [2], the “δd London dispersion HSP parameter” value is reported as 16 MPa^1/2, the “δh hydrogen bonding HSP parameter” value is given as 5.1 MPa^1/2 and the “δp polarity HSP parameter” value is recorded as 2.2 MPa^1/2.
With `CC1=CC(=O)C(C(C)C)CC1` (stereo not drawn) [Piperitone], the “Relative Energy Difference (RED)” value in data set [1] is given as 0.72. In data set [2], the “δd London dispersion HSP parameter” value was 17 MPa^1/2, the “δh hydrogen bonding HSP parameter” value was 4.5 MPa^1/2 and the “δp polarity HSP parameter” value is 6.2 MPa^1/2.
`CC1=CCC(=C(C)C)CC1` [Terpinolene]: in data set [1], the “Relative Energy Difference (RED)” value is reported as 0.70. Besides, in data set [2], the “δd London dispersion HSP parameter” value is 16.9 MPa^1/2, the “δh hydrogen bonding HSP parameter” value is 4.1 MPa^1/2 and the “δp polarity HSP parameter” value is listed as 1.8 MPa^1/2.
As to `C=C(C)C1CC=C(C)C(=O)C1` (stereo not drawn) [Carvone], the “Relative Energy Difference (RED)” value in data set [1] was 0.5. Besides, in data set [3], the “efficacy of microdroplets at dissolving cholesterol in whole blood” value (shortened to “efficacy of microdroplets”) was “excellent results”. Further, in data set [2], the “δd London dispersion HSP parameter” value is listed as 18 MPa^1/2, the “δh hydrogen bonding HSP parameter” value is 6.4 MPa^1/2 and the “δp polarity HSP parameter” value was 5.6 MPa^1/2.
Regarding `CC(C)=CCC/C(C)=C/CC/C(C)=C/CC/C=C(\C)CC/C=C(\C)CCC=C(C)C` [Squalene], the “Relative Energy Difference (RED)” value in data set [1] was 0.52. For the same compound, in data set [2], the “δd London dispersion HSP parameter” value is on record as 17.6 MPa^1/2, the “δh hydrogen bonding HSP parameter” value is reported as 6 MPa^1/2 and the “δp polarity HSP parameter” value is 3 MPa^1/2.
Turning to `C=C(C)C1CC=C(C=O)CC1` (stereo not drawn) [Perillaldehyde], the “Relative Energy Difference (RED)” value in data set [1] is given as 0.68. In data set [2], the “δd London dispersion HSP parameter” value is 17.1 MPa^1/2, the “δh hydrogen bonding HSP parameter” value is on record as 5.9 MPa^1/2 and the “δp polarity HSP parameter” value is 6.9 MPa^1/2.
Consider `C=CCc1ccc(O)c(OC)c1` [Eugenol], for which the “Ra^2 versus cholesterol” value in data set [1] (Eq. 1) was 44. Besides, the “Relative Energy Difference (RED)” value in data set [1] was 0.53. For the same compound, the “efficacy of microdroplets” value in data set [3] is listed as “excellent results”. In data set [2], the “δd London dispersion HSP parameter” value is listed as 18.1 MPa^1/2, the “δh hydrogen bonding HSP parameter” value is 11.6 MPa^1/2 and the “δp polarity HSP parameter” value is listed as 7.1 MPa^1/2.
terpinene: in data set [3], the “efficacy of microdroplets” value is reported as “excellent results”.
With `CC1CCC(C(C)C)C(O)C1` (stereo not drawn) [Menthol], in data set [1], the “Relative Energy Difference (RED)” value is 0.63. In data set [2], the “δd London dispersion HSP parameter” value was 16.6 MPa^1/2, the “δh hydrogen bonding HSP parameter” value is given as 10.6 MPa^1/2 and the “δp polarity HSP parameter” value is 4.7 MPa^1/2.
Phellandrene: in data set [1], the “Relative Energy Difference (RED)” value is reported as 0.76. For the same compound, in data set [2], the “δd London dispersion HSP parameter” value is listed as 16.5 MPa^1/2, the “δh hydrogen bonding HSP parameter” value is recorded as 3.9 MPa^1/2 and the “δp polarity HSP parameter” value was 1.6 MPa^1/2.
Regarding `CC(C)[C@@H]1CC[C@@H](C)CC1=O` [Menthone], the “Relative Energy Difference (RED)” value in data set [1] was 0.79. Also, in data set [2], the “δd London dispersion HSP parameter” value is recorded as 17 MPa^1/2, the “δh hydrogen bonding HSP parameter” value was 4.4 MPa^1/2 and the “δp polarity HSP parameter” value is given as 8.1 MPa^1/2.
For `C=C(C)[C@H]1CC=C(C)CC1` (racemic) [Dipentene], in data set [2], the “δd London dispersion HSP parameter” value was 16.7 MPa^1/2, the “δh hydrogen bonding HSP parameter” value is 4 MPa^1/2 and the “δp polarity HSP parameter” value is listed as 2.2 MPa^1/2.
For `CC(C)=CCC[C@H](C)[C@@H]1C=CC(C)=CC1` [Zingiberene], the “Relative Energy Difference (RED)” value in data set [1] is 0.74. Further, in data set [2], the “δd London dispersion HSP parameter” value is on record as 16.6 MPa^1/2, the “δh hydrogen bonding HSP parameter” value was 4.1 MPa^1/2 and the “δp polarity HSP parameter” value is given as 1.4 MPa^1/2.
For `CC(C)=CCCC(C)=CCCC(C)=CCO` [Farnesol], the “Relative Energy Difference (RED)” value in data set [1] was 0.65. In data set [2], the “δd London dispersion HSP parameter” value is given as 16.4 MPa^1/2, the “δh hydrogen bonding HSP parameter” value was 7.7 MPa^1/2 and the “δp polarity HSP parameter” value is 3.8 MPa^1/2.
`CC(C)=CCCC(C)CC=O` (stereo not drawn) [Citronellal]: the “Relative Energy Difference (RED)” value in data set [1] is reported as 0.78. For the same compound, in data set [2], the “δd London dispersion HSP parameter” value is given as 16.2 MPa^1/2, the “δh hydrogen bonding HSP parameter” value was 5.2 MPa^1/2 and the “δp polarity HSP parameter” value is recorded as 5.9 MPa^1/2.
Consider `CC(C)=CCCC(C)=CC=O` [Citral], for which, in data set [1], the “Relative Energy Difference (RED)” value is 0.7. Besides, in data set [2], the “δd London dispersion HSP parameter” value is on record as 16.3 MPa^1/2, the “δh hydrogen bonding HSP parameter” value was 6.2 MPa^1/2 and the “δp polarity HSP parameter” value was 2.3 MPa^1/2.
On to `CC(C)=C1CC[C@@H](C)CC1=O` [Pulegone], for which the “Relative Energy Difference (RED)” value in data set [1] is recorded as 0.74. Further, in data set [2], the “δd London dispersion HSP parameter” value is reported as 17.5 MPa^1/2, the “δh hydrogen bonding HSP parameter” value was 5.5 MPa^1/2 and the “δp polarity HSP parameter” value was 8.9 MPa^1/2.
With Bisabolene, the “Relative Energy Difference (RED)” value in data set [1] was 0.73. Moreover, in data set [2], the “δd London dispersion HSP parameter” value is recorded as 16.7 MPa^1/2, the “δh hydrogen bonding HSP parameter” value is recorded as 4 MPa^1/2 and the “δp polarity HSP parameter” value is reported as 2.2 MPa^1/2.
With `CC(C)C12CCC(C)(CC1)O2` [1,4-Cineole], the “Relative Energy Difference (RED)” value in data set [1] is given as 0.70. In data set [2], the “δd London dispersion HSP parameter” value is reported as 17.1 MPa^1/2, the “δh hydrogen bonding HSP parameter” value is 3.7 MPa^1/2 and the “δp polarity HSP parameter” value is 3.6 MPa^1/2.
Consider `C=CC(C)=CCC=C(C)C` [Ocimene], for which the “Relative Energy Difference (RED)” value in data set [1] was 0.62. Also, in data set [2], the “δd London dispersion HSP parameter” value is recorded as 16.5 MPa^1/2, the “δh hydrogen bonding HSP parameter” value is recorded as 9.1 MPa^1/2 and the “δp polarity HSP parameter” value is recorded as 2 MPa^1/2.
In the case of `C=CC(C)(CCC=C(C)C)OC(C)=O` (stereo not drawn) [Linalyl Acetate], in data set [1], the “Relative Energy Difference (RED)” value is 0.76. In data set [2], the “δd London dispersion HSP parameter” value is on record as 16 MPa^1/2, the “δh hydrogen bonding HSP parameter” value was 5.5 MPa^1/2 and the “δp polarity HSP parameter” value is 2.8 MPa^1/2.
`CC(C)=CCCC(C)CCO` (stereo not drawn) [Citronellol]: the “Relative Energy Difference (RED)” value in data set [1] is given as 0.72. In addition, in data set [2], the “δd London dispersion HSP parameter” value is recorded as 16 MPa^1/2, the “δh hydrogen bonding HSP parameter” value is 10.7 MPa^1/2 and the “δp polarity HSP parameter” value is reported as 4.7 MPa^1/2.
For `C=CC(C)(C)C(=O)C=C(C)C` [Artemisia Ketone], the “Relative Energy Difference (RED)” value in data set [1] was 0.83. Moreover, in data set [2], the “δd London dispersion HSP parameter” value is 15.9 MPa^1/2, the “δh hydrogen bonding HSP parameter” value is 5.1 MPa^1/2 and the “δp polarity HSP parameter” value is on record as 5.8 MPa^1/2.
On to `C=CC(C)(O)CCC=C(C)CCC=C(C)C` (stereo not drawn) [Nerolidol], for which the “Relative Energy Difference (RED)” value in data set [1] is on record as 0.64. In data set [2], the “δd London dispersion HSP parameter” value is 16.4 MPa^1/2, the “δh hydrogen bonding HSP parameter” value was 8.7 MPa^1/2 and the “δp polarity HSP parameter” value was 2.7 MPa^1/2.

Source of the values: patent US11123292B2, “Use of biocompatible microdroplets for the treatment of atherosclerosis, heart disease and stroke” (priority 2014, dated 2021).
